In general, inhibition in vivo refers to the share of the control response that was lost under treatment. Lower therefore signals a response near the control. By EC50 is commonly meant the concentration at which the effect is half-maximal. As a reminder, the inhibition is the share of the control response that was lost under treatment.

Experiment [1] concerns Mus musculus. Kind of experiment: Reduction in amyloid beta 42 levels in mouse brain at 30 mg/kg, po administered as single dose measured 4 hrs post dose by ELISA. It counts as functional. For orientation: ELISA stands for enzyme-linked immunosorbent assay.
Experiment [2] addresses Gamma-secretase. Kind of experiment: Modulation of gamma-secretase in human SK-N-BE(2) cells expressing human APP695 assessed as reduction in amyloid beta 42 production incubated overnight by sandwich immunoassay. Format: cell-based.
The test system of experiment [3] is Mus musculus. The experiment in a line: Increase in amyloid beta 38 levels in mouse brain at 30 mg/kg, po administered as single dose measured 4 hrs post dose by ELISA. Format: functional.
Experiment [4] has as its target Gamma-secretase. Kind of experiment: Modulation of gamma-secretase in human H4 cells expressing human APP695 assessed as reduction in amyloid beta 42 production after 22 hrs by electrochemiluminescence assay. It counts as cell-based.
For experiment [5], the target named is Gamma-secretase. Kind of experiment: Modulation of gamma-secretase in human H4 cells expressing human APP751 assessed as reduction in amyloid beta 42 production after 16 to 18 hrs by sandwich ELISA. Format: cell-based.
Experiment [6] has as its target Gamma-secretase. The experiment in a line: Modulation of gamma-secretase in human H4 cells expressing APP Swedish mutant assessed as inhibition of amyloid beta (1 to 42 residues) production. Format: cell-based.
Experiment [7] relates to Mus musculus. Kind of experiment: Reduction in amyloid beta (1 to 42 residues) AUC in triple transgenic mouse brain at 100 mg/kg administered via oral gavage measured up to 24 hrs by UPLC-MS-MS analysis. It counts as functional.
A further experiment concerns Rattus norvegicus. The experiment in a line: Reduction in amyloid beta (1 to 42 residues) AUC in Sprague-Dawley rat brain at 10 mg/kg administered via oral gavage measured up to 24 hrs by UPLC-MS-MS analysis. Format: functional.
Experiment [8] deals with Mus musculus. Kind of experiment: Reduction in amyloid beta (1 to 42 residues) AUC in triple transgenic mouse brain at 30 mg/kg administered via oral gavage measured up to 24 hrs by UPLC-MS-MS analysis. Format: functional.
In experiment [9] the test system is Mus musculus. Kind of experiment: Reduction in amyloid beta 42 levels in mouse brain at 10 mg/kg, po administered as single dose measured 4 hrs post dose by electrochemiluminescence assay. Format: functional.
The subject of experiment [10] is Homo sapiens. The experiment in a line: Reduction in amyloid beta (1 to 42 residues) […] in human plasma at 250 mg, po administered as single dose measured up to 24 hrs relative to control. It counts as functional.
The subject of experiment [11] is Homo sapiens. Kind of experiment: Reduction in amyloid beta 42 levels in human plasma at 250 mg, po administered as single dose measured over 24 hrs post dose by sandwich enzyme immunoassay. It counts as functional.
Experiment [12] has as its target Gamma-secretase. The experiment in a line: Modulation of gamma-secretase in human SH-SY5Y cells expressing human APP751 assessed as reduction in amyloid beta 42 production after 18 to 22 hrs by sandwich ELISA. Format: cell-based.
In experiment [13] the test system is Mus musculus. The experiment in a line: Reduction in amyloid beta 42 levels in Tg 2576 mouse brain at 50 to 100 mg/kg administered via oral gavage for 3 days by LC-MS/MS analysis. It counts as functional.
Experiment [14] has as its target Gamma-secretase. The experiment in a line: Modulation of gamma-secretase in human SH-SY5Y cells expressing human APP751 assessed as reduction in amyloid beta 42 production after 24 hrs by sandwich ELISA. Format: cell-based.
Experiment [15] concerns the target Gamma-secretase. Kind of experiment: Modulation of gamma-secretase in human H4 cells expressing human APP695 assessed as inhibition of amyloid beta 42 production after 16 hrs by sandwich ELISA. Format: cell-based.
In experiment [16] the target is Gamma-secretase. Kind of experiment: Modulation of gamma-secretase in human SH-SY5Y cells expressing human APP751 assessed as reduction in amyloid beta 42 production after 16 to 18 hrs by ELISA. It counts as cell-based.
The species named for experiment [17] is Homo sapiens. The experiment in a line: Modulation of gamma-secretase in human H4 cells expressing human APP695 assessed as inhibition of amyloid beta 42 production at 10 uM after 16 hrs by sandwich ELISA. It counts as functional.
For experiment [18], the target named is Gamma-secretase. The experiment in a line: Modulation of gamma-secretase (unknown origin) assessed as reduction in amyloid beta 42 production by ELISA. It counts as protein-complex assay, Homo sapiens.
For experiment [19], the system named is Mus musculus. The experiment in a line: Reduction in amyloid beta 42 levels in mouse brain at 30 mg/kg, po administered as single dose measured 4 hrs post dose by electrochemiluminescence assay. It counts as functional.

Structures are written as SMILES.

In the experiment with Mus musculus [1], `COc1cc2[nH]c(-c3cn4c(n3)C(c3cccc(F)c3C)OCC4)cc2cc1C#N` (configuration not stated) returned an inhibition in vivo at 30 mg/kg of 66%. Further, at Gamma-secretase [2], the half-maximal effective concentration (EC50) was found to be 20 nM. The same compound gave an Activity in the experiment on Mus musculus [3] of 40%.

For the compound `COc1cc(Nc2nc3c(c(N4CCCCC4)n2)SC2(CCC2)C3)ccc1-n1cnc(C)c1`, the concentration giving a half-maximal response (EC50) on Gamma-secretase [4] amounted to 90 nM.

Consider `COc1cc(Nc2ncc3c(n2)N(c2ccccc2)CCO3)ccc1-n1cnc(C)c1`, for which the EC50 at Gamma-secretase [5] turned out to be 39 nM.

`COc1cc(Nc2nc3n(n2)CCCC[C@H]3c2ccc(F)cc2)ccc1-n1cnc(C)c1`: the concentration for a half-maximal effect (EC50) at Gamma-secretase [6] stood at 6 nM. The inhibition in vivo at 100 mg/kg in the experiment with Mus musculus [7] stood at 55%. The same compound yielded an inhibition in vivo at 10 mg/kg in the experiment on Rattus norvegicus of 47%. Besides, in the experiment on Mus musculus [8], the inhibition in vivo at 30 mg/kg worked out at 31%.

Consider `COc1cc(Nc2ncc3c(n2)N2CCCC2CO3)ccc1-n1cnc(C)c1` (configuration not stated), for which, at Gamma-secretase [5], the EC50 was found to be 71 nM.

Regarding `CNc1nc(Cc2ccccc2)nc(Nc2ccc(-n3cnc(C)c3)c(OC)c2)n1`, the half-maximal effective concentration (EC50) on Gamma-secretase [6] turned out to be 29 nM.

For `COc1cc(Nc2ncc3c(n2)N(c2cc(F)cc(F)c2)CCO3)ccc1-n1cnc(C)c1`, the EC50 on Gamma-secretase [5] was found to be 14 nM.

Consider `Cc1cn(-c2ccc3n(c2=O)C[C@@H](C)N(C(C)c2coc4cc(F)c(C(F)(F)F)cc24)C3=O)cn1` (some centres not stated), for which the concentration giving a half-maximal response (EC50) at Gamma-secretase [2] amounted to 6 nM. The compound further had an inhibition in vivo at 10 mg/kg with Mus musculus [9] of 42%.

Regarding `COc1nc(/C=C/c2nc3n(n2)CCC[C@H]3c2ccccc2C(F)(F)F)ccc1-n1cnc(C)c1` [E-2212], the “inhibition (INH)” value with Homo sapiens [10] was found to be 44%; in the experiment on Homo sapiens [11], 54%.

For `CCN(CC)c1ccc(Nc2nc(-c3ccc(-n4ccnc4)cc3)cs2)c(C)c1`, the EC50 at Gamma-secretase [12] worked out at 1500 nM.

With `CCc1cc(Nc2nc(-c3ccc(-n4cnc(C)c4)c(F)c3)cs2)c(C)cc1C`, in the experiment with Mus musculus [13], the “inhibition (INH)” value was 30 - 40%.

Take `COc1cc(Nc2ncc3c(n2)N(CC(F)(F)F)CCO3)ccc1-n1cnc(C)c1`: the concentration giving a half-maximal response (EC50) at Gamma-secretase [5] was found to be 101 nM.

On to `COc1cc(N2CCC(Nc3ncc4c(n3)N(CC(F)(F)F)CCO4)CC2)ccn1`, for which, on Gamma-secretase [5], the EC50 is 105 nM.

For `CCN1C(=O)C2CCCCCN2c2nc(Nc3ccc(-n4cnc(C)c4)c(OC)c3)ncc21` (configuration not stated), the EC50 on Gamma-secretase [4] stood at 46 nM.

For `COc1cc2[nH]c(-c3cn4c(n3)C(c3ccccc3Cl)OCC4)cc2cc1C#N` (configuration not stated), at 30 mg/kg the inhibition in vivo in the experiment with Mus musculus [1] was 73%. The EC50 on Gamma-secretase [2] was found to be 21 nM. The Activity in the experiment on Mus musculus [3] came to 10%.

In the case of `CCn1nc2c(c1Nc1nc(-c3ccc(-n4cnc(C)c4)cc3)cs1)CCCC2`, the EC50 at Gamma-secretase [14] turned out to be 347 nM.

As for `COc1cc2[nH]c(-c3cn4c(n3)C(c3ccccc3C(F)(F)F)OCC4)cc2cc1C#N` (configuration not stated), 30 mg/kg produced 57% inhibition in vivo with Mus musculus [1]. Also, the EC50 at Gamma-secretase [2] was 45 nM. In the experiment with Mus musculus [3], this compound yielded an Activity of 41%.

Take `CCn1nc2c(c1Nc1nc(-c3ccc(-n4cnc(C)c4)c(OC)n3)cs1)CCCC2`: the half-maximal effective concentration (EC50) at Gamma-secretase [14] was found to be 30 nM.

For `CCn1nc2c(c1Nc1nc(-c3ccc(-n4cnc(C)c4)nc3)cs1)CCCC2`, at Gamma-secretase [14], the EC50 worked out at 1300 nM.

With `C[C@H](CCC(=O)O)[C@H]1CC[C@H]2[C@@H]3CC[C@@H]4CCCC[C@]4(C)[C@H]3CC[C@]12C` [URSOCHOLANIC ACID], the EC50 on Gamma-secretase [15] was 5700 nM.

Turning to `COc1cc(N2CCC(Nc3ncc4c(n3)N(c3ccccc3)CCO4)CC2)ccn1`, the concentration for a half-maximal effect (EC50) on Gamma-secretase [5] stood at 25 nM.

With `COc1cc(Nc2ncc3c(n2)N(C)[C@@H](c2ccccc2)CO3)ccc1-n1cnc(C)c1`, the EC50 at Gamma-secretase [5] was found to be 16 nM.

With `COc1cc(-c2csc(N3CCCn4nc5c(c43)CCCC5)n2)ccc1-n1cnc(C)c1`, the EC50 on Gamma-secretase [16] was determined as 6 nM.

Consider `COc1cc(Nc2ncc3c(n2)N(C)C2(CC2)CO3)ccc1-n1cnc(C)c1`, for which the concentration giving a half-maximal response (EC50) at Gamma-secretase [5] came to 49 nM.

As for `C[C@H](CCC(=O)O)[C@H]1CC[C@H]2[C@@H]3CC[C@@H]4C[C@H](O)CC[C@]4(C)[C@H]3CC[C@]12C` [LITHOCHOLIC ACID], the inhibition at 10 µM in the experiment filed under Homo sapiens [17] came out at 62%.

Turning to `Cc1cc([C@@H]2CC[C@@H](Nc3ncc4c(n3)N(c3ccccc3Cl)CCO4)CO2)ccn1`, the EC50 on Gamma-secretase [5] stood at 41 nM.

Regarding `CC(=O)O[C@@H]([C@H]1C[C@@H](C)C2=C(O1)[C@H](O)[C@@]1(C)[C@@H]3CC[C@H]4C(C)(C)[C@@H](O[C@@H]5OC[C@@H](O)[C@H](O)[C@H]5O)CC[C@@]45C[C@@]35CC[C@]21C)C(C)(C)O`, the EC50 at Gamma-secretase [18] is 100 nM.

For the compound `Cc1cn(-c2ccc3n(c2=O)CC2CCC(Cc4cc(C(F)(F)F)cc(C(F)(F)F)c4)N2C3=O)cn1` (configuration not stated), the EC50 at Gamma-secretase [2] turned out to be 50 nM.

On to `CCn1cc(C(C)N2C(=O)c3ccc(-n4cnc(C)c4)c(=O)n3C[C@H]2C)c2cc(Cl)c(F)cc21` (some centres not stated), for which the half-maximal effective concentration (EC50) at Gamma-secretase [2] came out at 10 nM. Also, the inhibition in vivo at 30 mg/kg with Mus musculus [19] worked out at 61%.

Take `COc1cc(Nc2ncc3c(n2)N(C)C2(CCCC2)C(=O)N3CC(F)(F)F)ccc1-n1cnc(C)c1`: the EC50 at Gamma-secretase [4] was 22 nM.

The values above are taken from ChEMBL document CHEMBL4431306, “Gamma Secretase Modulators: New Alzheimer's Drugs on the Horizon?” (J Med Chem, 2016).
